According to ChEMBL document CHEMBL4145621, “4-Substituted Benzenesulfonamides Incorporating Bi/Tricyclic Moieties Act as Potent and Isoform-Selective Carbonic Anhydrase II/IX Inhibitors” (J Med Chem, 2018):
pKi: −log10 of the molar value.

Target: Carbonic anhydrase 1 (Homo sapiens, UniProt P00915)
Assay: Inhibition of recombinant human cytosolic CA1 preincubated for 15 mins by phenol red dye-based stopped-flow CO2 hydration assay

Chain of Carbonic anhydrase 1 (P00915 whole entry): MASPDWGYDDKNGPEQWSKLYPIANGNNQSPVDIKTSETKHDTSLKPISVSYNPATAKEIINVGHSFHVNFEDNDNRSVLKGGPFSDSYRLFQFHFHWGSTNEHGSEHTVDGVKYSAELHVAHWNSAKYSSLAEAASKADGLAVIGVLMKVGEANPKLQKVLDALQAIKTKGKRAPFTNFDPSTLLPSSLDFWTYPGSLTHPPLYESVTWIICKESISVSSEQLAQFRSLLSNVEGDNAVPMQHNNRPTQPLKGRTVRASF

pKi | SMILES
< 5.00 | NS(=O)(=O)c1ccc(-n2ncc3c2-c2cnc(-c4ccccc4)nc2CC3)cc1

Target: Carbonic anhydrase 9 (Homo sapiens, UniProt Q16790)
Assay: Inhibition of recombinant human CA9 preincubated for 15 mins by phenol red dye-based stopped-flow CO2 hydration assay

SMILES | pKi
Cc1ncc2c(n1)CCc1cnn(-c3ccc(S(N)(=O)=O)cc3)c1-2 | 8.15
NS(=O)(=O)c1ccc(-n2ncc3c2CC(c2ccccc2)CC3=O)cc1 (stereo not given) | 9.14
NS(=O)(=O)c1ccc(-n2ncc3c2-c2cncnc2CC3)cc1 | 9.24
NS(=O)(=O)c1ccc(Nc2ncc3c(n2)CC(c2ccccc2)CC3=O)cc1 (stereo not given) | 9.10
NS(=O)(=O)c1ccc(Nc2ncc3c(n2)CCCC3=O)cc1 | 9.26

The next lines start with the values.

pKi | SMILES
9.05 | CC1(C)CC(=O)c2cnc(Nc3ccc(S(N)(=O)=O)cc3)nc2C1
9.06 | CC1(C)CC(=O)c2cnn(-c3ccc(S(N)(=O)=O)cc3)c2C1
8.14 | NS(=O)(=O)c1ccc(-n2ncc3c2-c2cnc(-c4ccccc4)nc2CC3)cc1
8.28 | NS(=O)(=O)c1ccc(-n2ncc3c2CCCC3=O)cc1
